Results on 16 compounds are retold here after publication PMC4429810, “Heat shock protein 90 inhibitors repurposed against Entamoeba histolytica” (Frontiers in Microbiology, 2015).

Structures can show the parent of a compound that is named as a salt.

The target of assay [1] is T1, EhHsp90 ATP-binding domain (Entamoeba histolytica, UniProt C4MBP1).
T1 construct: gene EHI_102270; cloned from genomic DNA in pET28a, E. coli BL21(DE3); His tag said to be cut by TEV; pocket residues C49, C103, R109
Kind of assay: bis-ANS fluorescence displacement screen. The following applies: read-out: Percent inhibition of fluorescence in protein screen at 2.5 μM (%). From the text:
bis-ANS fluorescence displacement screen on EhHsp90 ATP-binding domain

Assay [2] deals with T2, PfHsp90 ATP-binding domain (Plasmodium falciparum, UniProt Q8IC05).
T2 construct: gene PF3D7_0708400; from genomic DNA in pET28b, E. coli BL21(DE3); His tag said to be cut by TEV; pocket residues A38, N92, R98
T2 sequence (Q8IC05 1-211): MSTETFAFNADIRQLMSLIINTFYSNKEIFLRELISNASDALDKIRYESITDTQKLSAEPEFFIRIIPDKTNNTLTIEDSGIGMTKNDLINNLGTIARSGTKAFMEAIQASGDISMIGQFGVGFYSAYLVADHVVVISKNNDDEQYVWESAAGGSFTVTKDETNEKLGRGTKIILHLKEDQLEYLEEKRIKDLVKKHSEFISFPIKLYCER
Description: bis-ANS fluorescence displacement screen. To be noted: bis-ANS 5 μM, protein 1 μM, Tris pH 7.5, 10 mM MgCl2, 50 mM KCl, 37°C; competition with bis-ANS at ATP-binding domain.

T1 sequence (C4MBP1 1-215): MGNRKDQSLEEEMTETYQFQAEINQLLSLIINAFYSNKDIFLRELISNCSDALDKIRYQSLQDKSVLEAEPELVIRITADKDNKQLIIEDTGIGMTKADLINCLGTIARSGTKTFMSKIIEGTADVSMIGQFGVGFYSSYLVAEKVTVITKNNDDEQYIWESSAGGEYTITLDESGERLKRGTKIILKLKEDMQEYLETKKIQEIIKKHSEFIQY

With `O=C1Nc2ccc(I)cc2/C1=C/c1cc(Br)c(O)c(Br)c1` [GW5074], the inhibition at 2.5 µM in assay [1] stood at 70.5%.

Take `N=C1C=CC(=C(c2ccc(N)cc2)c2ccc(N)cc2)C=C1` [Pararosaniline pamoate]: the inhibition at 2.5 µM in assay [1] came out at 99%.

As for `C[n+]1cc2c3c(ccc2c2ccc4cc5c(cc4c21)OCO5)OCO3` [Sanguinarine sulfate], in assay [1], the inhibition at 2.5 µM worked out at 71.3%.

Consider `COc1ccc2cc3[n+](cc2c1OC)CCc1cc2c(cc1-3)OCO2` [Berberine chloride], for which the inhibition at 2.5 µM in assay [1] stood at 78.3%.

Take `CN(C)c1ccc(C(=C2C=CC(=[N+](C)C)C=C2)c2ccc(N(C)C)cc2)cc1` [Gentian Violet]: the inhibition at 2.5 µM in assay [1] came to 99.3%.

In the case of `CC(C)/N=c1\cc2n(-c3ccc(Cl)cc3)c3ccccc3nc-2cc1Nc1ccc(Cl)cc1` [Clofazimine], the inhibition at 2.5 µM in assay [1] is 73.7%.

In the case of `COc1cccc2c1C(=O)c1c(O)c3c(c(O)c1C2=O)C[C@@](O)(C(C)=O)C[C@@H]3O[C@H]1C[C@H](N)[C@H](O)[C@H](C)O1` [Daunorubicin hydrochloride], in assay [1], the inhibition at 2.5 µM worked out at 83.2%.

For `CO[C@H]1/C=C/O[C@@]2(C)Oc3c(C)c(O)c4c(c3C2=O)C2=NC3(CCN(CC(C)C)CC3)NC2=C(NC(=O)/C(C)=C\C=C\[C@H](C)[C@H](O)[C@@H](C)[C@@H](O)[C@@H](C)[C@H](OC(C)=O)[C@@H]1C)C4=O` [Rifabutin], in assay [2], the “bis-ANS fluorescence displacement screen” value was “rifabutin showed the highest inhibition against PfHsp90”. Besides, the inhibition at 2.5 µM in assay [1] was 73.7%.

As for `N#C/C(=C\c1ccc(O)c(O)c1)C(=O)c1ccc(O)c(O)c1` [Tyrphostin AG 538], the inhibition at 2.5 µM in assay [1] was determined as 75%.

As to `CCN(CC)Cc1cc(Nc2ccnc3cc(Cl)ccc23)ccc1O` [Amodiaquindihydrochloride dihydrate], the inhibition at 2.5 µM in assay [1] worked out at 82.1%.

`O=C1c2ccccc2C(=O)c2c(O)c(O)cc(O)c21` [Purpurin]: the inhibition at 2.5 µM in assay [1] turned out to be 75%.

As to `CC[C@@]1(O)C[C@H](O[C@H]2C[C@H](N(C)C)[C@H](O)[C@H](C)O2)c2c(cc3c(c2O)C(=O)c2c(O)ccc(O)c2C3=O)[C@H]1C(=O)OC` [Rutilantin], the inhibition at 2.5 µM in assay [1] was found to be 77.1%.

Take `CCN(CC)CCNc1ccc(CO)c2sc3ccccc3c(=O)c12` [Hycanthone]: the inhibition at 2.5 µM in assay [1] was 90.9%.

For the compound `O=C1c2c(O)ccc(O)c2C(=O)c2c(NCCNCCO)ccc(NCCNCCO)c21` [Mitoxantronedihydrochloride], the inhibition at 2.5 µM in assay [1] turned out to be 95.3%.

Take `C=CC1=C(C)/C(=C/c2[nH]c(Cc3[nH]c(/C=C4\NC(=O)C(C)=C4C=C)c(C)c3CCC(=O)O)c(CCC(=O)O)c2C)NC1=O` [Bilirubin]: the inhibition at 2.5 µM in assay [1] worked out at 73.7%.

As to `CN(C)c1ccc(C(=C2C=CC(=[N+](C)C)C=C2)c2ccccc2)cc1` [WB 64 (Malachite Green)], the inhibition at 2.5 µM in assay [1] came out at 84.9%.
